Like-named read-outs stand apart in the source and are kept apart here.
Key:
Format in all cases: cell-based
hGIPR = molecular target: T1, hGIPR (Homo sapiens, UniProt P48546); assay: Functional cAMP formation (HTRF) in HEK-293 clonal cells expressing hGIPR, 0.1% bovine casein, without or with 1.0% human serum albumin; settings: for Emax: percent of maximal response to GIP(1-42)NH2; for EC50: cAMP
T1 construct: expressed in transfected cells
T1 sequence (P48546 22-466): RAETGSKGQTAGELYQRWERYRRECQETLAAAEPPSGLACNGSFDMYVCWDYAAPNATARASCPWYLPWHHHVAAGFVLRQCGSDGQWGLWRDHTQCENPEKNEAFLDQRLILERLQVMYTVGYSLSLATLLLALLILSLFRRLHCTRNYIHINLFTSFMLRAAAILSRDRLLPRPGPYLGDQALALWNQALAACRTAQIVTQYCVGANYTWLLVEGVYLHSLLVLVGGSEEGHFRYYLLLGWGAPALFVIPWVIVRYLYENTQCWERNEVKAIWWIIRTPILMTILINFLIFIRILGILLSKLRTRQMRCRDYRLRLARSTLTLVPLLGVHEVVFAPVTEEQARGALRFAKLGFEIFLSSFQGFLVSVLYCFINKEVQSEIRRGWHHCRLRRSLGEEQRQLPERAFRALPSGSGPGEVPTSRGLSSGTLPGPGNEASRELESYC
How it was run: (§1)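 Readings of the HTRF 665/620 nm ratio, which falls as cAMP rises, were converted to nM cAMP using a standard curve after 30 min peptide exposure at 37° C.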

hGCGR = molecular target: T2, hGCGR (Homo sapiens, UniProt P47871); assay: Functional cAMP formation (HTRF) in HEK-293 clonal cells expressing hGCGR, 0.1% bovine casein, without or with 1.0% human serum albumin; settings: cAMP, 37° C.
T2 construct: expressed in transfected cells
How it was run: as §1

hGLP-1R = hGLP-1R (Homo sapiens, UniProt P43220); assay: Functional cAMP formation (HTRF) in HEK-293 clonal cells expressing hGLP-1R, 0.1% bovine casein, without or with 1.0% human serum albumin; parameters: expressed in transfected cells; settings: for Emax: percent of maximal response to GLP-1(7-36)NH2; for EC50: cAMP
How it was run: as §1

[1] = HEK293, read-out: hGIPR Emax, % ± SEM, cAMP, 37° C., 0.1% bovine casein and 1.0% human serum albumin
[2] = hGIPR EC50, nM (SEM, n), 37° C., 0.1% bovine casein (no human serum albumin), geometric mean
[3] = hGCGR EC50, nM (SEM, n), 0.1% bovine casein (no human serum albumin), geometric mean
[4] = hGCGR EC50, nM (SEM, n), 0.1% bovine casein and 1.0% human serum albumin, geometric mean (SEM, n)
[5] = hGLP-1R EC50, nM (SEM, n), 37° C., 0.1% bovine casein (no human serum albumin), geometric mean
[6] = HEK293, cAMP, 37° C., 0.1% bovine casein and 1.0% human serum albumin, read-out: hGIPR Emax, % ± SEM
[7] = 37° C., 0.1% bovine casein (no human serum albumin), geometric mean, read-out: hGIPR EC50, nM (SEM, n)
[8] = 0.1% bovine casein (no human serum albumin), geometric mean, read-out: hGCGR EC50, nM (SEM, n)
[9] = 0.1% bovine casein and 1.0% human serum albumin, geometric mean (SEM, n), read-out: hGCGR EC50, nM (SEM, n)
[10] = HEK293, cAMP, 37° C., 0.1% bovine casein and 1.0% human serum albumin, read-out: hGLP-1R Emax, % ± SEM
[11] = 37° C., 0.1% bovine casein (no human serum albumin), geometric mean, read-out: hGLP-1R EC50, nM (SEM, n)

T2 sequence (P47871 26-477): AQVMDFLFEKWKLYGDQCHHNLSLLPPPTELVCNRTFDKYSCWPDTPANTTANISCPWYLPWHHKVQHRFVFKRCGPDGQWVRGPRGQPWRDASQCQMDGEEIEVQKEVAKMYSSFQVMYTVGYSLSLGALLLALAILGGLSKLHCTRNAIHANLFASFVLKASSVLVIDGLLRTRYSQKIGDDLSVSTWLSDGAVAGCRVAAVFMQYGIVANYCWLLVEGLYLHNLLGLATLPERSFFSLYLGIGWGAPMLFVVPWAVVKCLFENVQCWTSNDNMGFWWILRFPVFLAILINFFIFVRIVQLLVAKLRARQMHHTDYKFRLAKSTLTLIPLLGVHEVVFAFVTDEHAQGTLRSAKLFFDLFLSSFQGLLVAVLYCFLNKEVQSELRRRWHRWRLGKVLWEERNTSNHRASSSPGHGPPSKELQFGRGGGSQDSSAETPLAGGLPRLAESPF
hGLP-1R, sequence (P43220 24-463): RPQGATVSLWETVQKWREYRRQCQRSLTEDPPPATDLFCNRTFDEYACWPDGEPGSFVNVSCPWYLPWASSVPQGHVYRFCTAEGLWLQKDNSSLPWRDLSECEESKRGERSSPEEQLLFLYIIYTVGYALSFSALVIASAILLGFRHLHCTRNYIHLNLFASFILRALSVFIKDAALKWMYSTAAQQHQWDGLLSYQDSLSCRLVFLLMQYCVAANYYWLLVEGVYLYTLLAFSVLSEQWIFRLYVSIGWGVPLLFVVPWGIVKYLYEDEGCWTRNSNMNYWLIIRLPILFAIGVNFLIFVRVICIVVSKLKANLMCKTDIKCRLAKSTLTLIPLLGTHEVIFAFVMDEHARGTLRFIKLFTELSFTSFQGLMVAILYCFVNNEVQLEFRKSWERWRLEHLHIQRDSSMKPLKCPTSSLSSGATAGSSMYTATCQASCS

| Structure (SMILES) | Emax (hGIPR; [1]) [%] | Emax (hGIPR; HEK293, read-out: hGIPR Emax, % ± SEM, cAMP, 37° C., 0.1% bovine casein, arithmetic mean) [%] | EC50 (hGIPR; [2]) [nM] | EC50 (hGCGR; [3]) [nM] | EC50 (hGCGR; [4]) [nM] | Emax (hGLP-1R; HEK293, read-out: hGLP-1R Emax, % ± SEM, cAMP, 37° C., 0.1% bovine casein and 1.0% human serum albumin) [%] | EC50 (hGLP-1R; [5]) [nM] | EC50 (hGLP-1R; hGLP-1R EC50, nM (SEM, n), 37° C., 0.1% bovine casein and 1.0% human serum albumin, geometric mean (SEM, n)) [nM] | Emax (hGIPR; [6]) [%] | EC50 (hGIPR; [7]) [nM] | EC50 (hGCGR; [8]) [nM] | EC50 (hGCGR; [9]) [nM] | Emax (hGLP-1R; [10]) [%] | EC50 (hGLP-1R; [11]) [nM] | EC50 (hGIPR; 37° C., 0.1% bovine casein and 1.0% human serum albumin, geometric mean (SEM, n), read-out: hGIPR EC50, nM (SEM, n)) [nM] | Emax (hGLP-1R; HEK293, read-out: hGLP-1R Emax, % ± SEM, cAMP, 37° C., 0.1% bovine casein, arithmetic mean) [%] |
| --- | --- | --- | --- | --- | --- | --- | --- | --- | --- | --- | --- | --- | --- | --- | --- | --- |
| CC[C@H](C)[C@H](NC(=O)[C@H](CCCN)NC(=O)[C@H](CC(=O)O)NC(=O)[C@H](CC(C)C)NC(=O)[C@](C)(CC(C)C)NC(=O)[C@@H](NC(=O)C(C)(C)NC(=O)[C@@H](NC(=O)[C@H](CC(=O)O)NC(=O)[C@H](CO)NC(=O)[C@@H](NC(=O)[C@](C)(Cc1ccccc1F)NC(=O)[C@@H](NC(=O)CNC(=O)[C@H](CCC(=O)O)NC(=O)C(C)(C)NC(=O)[C@@H](N)Cc1ccc(O)cc1)[C@@H](C)O)[C@@H](C)O)C(C)C)[C@@H](C)CC)C(=O)N[C@@H](C)C(=O)N[C@@H](CCC(N)=O)C(=O)NC(C)(C)C(=O)N[C@@H](CCCN)C(=O)N[C@@H](Cc1ccccc1)C(=O)N[C@H](C(=O)N[C@@H](CCCCNC(=O)COCCOCCNC(=O)COCCOCCNC(=O)CC[C@H](NC(=O)CCCCCCCCCOc1ccc(C(=O)O)cc1)C(=O)O)C(=O)N[C@@](C)(Cc1ccc(O)cc1)C(=O)N[C@@H](CC(C)C)C(=O)N[C@H](C(=O)N[C@@H](CCCCNC(=O)COCCOCCNC(=O)COCCOCCNC(=O)CC[C@H](NC(=O)CCCCCCCCCOc1ccc(C(=O)O)cc1)C(=O)O)C(=O)NCC(=O)NCC(=O)N1CCC[C@H]1C(=O)N[C@@H](CO)C(=O)N[C@@H](CO)C(=O)NCC(=O)N[C@@H](C)C(=O)N1CCC[C@H]1C(=O)N1CCC[C@H]1C(=O)N1CCC[C@H]1C(=O)N[C@@H](CO)C(N)=O)[C@@H](C)CC)[C@@H](C)CC [Example 356] | 82.7 | 96.2 | 0.0488 | > 9950 | > 9950 | 93 | 0.936 | 23.4 | – | – | – | – | – | – | – | – |
| CC[C@H](C)[C@H](NC(=O)[C@H](CC(C)C)NC(=O)[C@](C)(Cc1ccc(O)cc1)NC(=O)[C@@H](CCC(=O)O)NC(=O)[C@@H](NC(=O)[C@H](Cc1ccccc1)NC(=O)[C@H](CCCCNC(=O)COCCOCCNC(=O)COCCOCCNC(=O)CC[C@H](NC(=O)CCCCCCCCCCCCC(=O)O)C(=O)O)NC(=O)C(C)(C)NC(=O)[C@H](CCC(N)=O)NC(=O)[C@H](C)NC(=O)[C@H](CCCCNC(=O)COCCOCCNC(=O)COCCOCCNC(=O)CC[C@H](NC(=O)CCCCCCCCCCCCC(=O)O)C(=O)O)NC(=O)[C@H](CCCN)NC(=O)[C@H](CC(=O)O)NC(=O)[C@H](CC(C)C)NC(=O)[C@](C)(CC(C)C)NC(=O)[C@@H](NC(=O)C(C)(C)NC(=O)[C@H](Cc1ccncc1)NC(=O)[C@H](CC(=O)O)NC(=O)[C@H](CO)NC(=O)[C@@H](NC(=O)[C@](C)(Cc1ccccc1F)NC(=O)[C@@H](NC(=O)CNC(=O)[C@H](CCC(=O)O)NC(=O)C(C)(C)NC(=O)[C@@H](N)Cc1ccc(O)cc1)[C@@H](C)O)[C@@H](C)O)[C@@H](C)CC)[C@@H](C)CC)C(=O)N[C@@H](CCC(=O)O)C(=O)NCC(=O)NCC(=O)N1CCC[C@H]1C(=O)N[C@@H](CO)C(=O)N[C@@H](CO)C(=O)NCC(=O)N[C@@H](C)C(=O)N1CCC[C@H]1C(=O)N1CCC[C@H]1C(=O)N1CCC[C@H]1C(=O)N[C@@H](CO)C(N)=O [Example 357] | – | – | – | – | – | – | – | – | 78.2 | 0.011 | > 10100 | > 9950 | 92.8 | 0.649 | – | – |
| CC[C@H](C)[C@H](NC(=O)[C@H](CC(C)C)NC(=O)[C@](C)(Cc1ccc(O)cc1)NC(=O)[C@@H](CCC(=O)O)NC(=O)[C@@H](NC(=O)[C@H](Cc1ccccc1)NC(=O)[C@H](CCC(=O)O)NC(=O)C(C)(C)NC(=O)[C@H](CCC(N)=O)NC(=O)[C@H](C)NC(=O)[C@H](CCCCNC(=O)COCCOCCNC(=O)COCCOCCNC(=O)CC[C@H](NC(=O)CCCCCCCCCCCCC(=O)O)C(=O)O)NC(=O)[C@H](CCCN)NC(=O)[C@H](CC(=O)O)NC(=O)[C@H](CC(C)C)NC(=O)[C@](C)(CC(C)C)NC(=O)[C@@H](NC(=O)C(C)(C)NC(=O)[C@H](Cc1ccncc1)NC(=O)[C@H](CC(=O)O)NC(=O)[C@H](CO)NC(=O)[C@@H](NC(=O)[C@](C)(Cc1ccccc1F)NC(=O)[C@@H](NC(=O)CNC(=O)[C@H](CCC(=O)O)NC(=O)C(C)(C)NC(=O)[C@@H](N)Cc1ccc(O)cc1)[C@@H](C)O)[C@@H](C)O)[C@@H](C)CC)[C@@H](C)CC)C(=O)N[C@@H](CCCCNC(=O)COCCOCCNC(=O)COCCOCCNC(=O)CC[C@H](NC(=O)CCCCCCCCCCCCC(=O)O)C(=O)O)C(=O)NCC(=O)NCC(=O)N1CCC[C@H]1C(=O)N[C@@H](CO)C(=O)N[C@@H](CO)C(=O)NCC(=O)N[C@@H](C)C(=O)N1CCC[C@H]1C(=O)N1CCC[C@H]1C(=O)N1CCC[C@H]1C(=O)N[C@@H](CO)C(N)=O [Example 358] | – | – | – | – | – | – | – | – | 86.2 | 0.0137 | > 10100 | > 9950 | – | 0.773 | 2.06 | – |
| CC[C@H](C)[C@H](NC(=O)[C@H](CC(C)C)NC(=O)[C@](C)(Cc1ccc(O)cc1)NC(=O)[C@@H](CCC(=O)O)NC(=O)[C@@H](NC(=O)[C@H](Cc1ccccc1)NC(=O)[C@H](CCC(=O)O)NC(=O)C(C)(C)NC(=O)[C@H](CCC(N)=O)NC(=O)[C@H](C)NC(=O)[C@H](CCCCNC(=O)COCCOCCNC(=O)COCCOCCNC(=O)CC[C@H](NC(=O)CCCCCCCCCCCCC(=O)O)C(=O)O)NC(=O)[C@H](CCCN)NC(=O)[C@H](CC(=O)O)NC(=O)[C@H](CC(C)C)NC(=O)[C@](C)(CC(C)C)NC(=O)[C@@H](NC(=O)C(C)(C)NC(=O)[C@H](Cc1ccncc1)NC(=O)[C@H](CC(=O)O)NC(=O)[C@H](CO)NC(=O)[C@@H](NC(=O)[C@](C)(Cc1ccccc1F)NC(=O)[C@@H](NC(=O)CNC(=O)[C@H](CCC(=O)O)NC(=O)C(C)(C)NC(=O)[C@@H](N)Cc1ccc(O)cc1)[C@@H](C)O)[C@@H](C)O)[C@@H](C)CC)[C@@H](C)CC)C(=O)N[C@@H](CCC(=O)O)C(=O)NCC(=O)NCC(=O)N1CCC[C@H]1C(=O)N[C@@H](CO)C(=O)N[C@@H](CO)C(=O)NCC(=O)N[C@@H](C)C(=O)N1CCC[C@H]1C(=O)N1CCC[C@H]1C(=O)N1CCC[C@H]1C(=O)N[C@@H](CO)C(=O)N[C@@H](CCCCNC(=O)COCCOCCNC(=O)COCCOCCNC(=O)CC[C@H](NC(=O)CCCCCCCCCCCCC(=O)O)C(=O)O)C(N)=O [Example 359] | – | – | – | – | – | – | – | – | 81 | 0.0261 | > 10100 | > 9950 | 95.1 | 1.18 | – | – |
| CC[C@H](C)[C@H](NC(=O)[C@H](CC(C)C)NC(=O)[C@](C)(Cc1ccc(O)cc1)NC(=O)[C@@H](CCC(=O)O)NC(=O)[C@@H](NC(=O)[C@H](Cc1ccccc1)NC(=O)[C@H](CCC(=O)O)NC(=O)C(C)(C)NC(=O)[C@H](CCC(N)=O)NC(=O)[C@H](C)NC(=O)[C@H](CCCCNC(=O)COCCOCCNC(=O)CC[C@H](NC(=O)CCCCCCCCCOc1ccc(C(=O)O)cc1)C(=O)O)NC(=O)[C@H](CCCN)NC(=O)[C@H](CC(=O)O)NC(=O)[C@H](CC(C)C)NC(=O)[C@](C)(CC(C)C)NC(=O)[C@@H](NC(=O)C(C)(C)NC(=O)[C@H](Cc1ccncc1)NC(=O)[C@H](CC(=O)O)NC(=O)[C@H](CO)NC(=O)[C@@H](NC(=O)[C@](C)(Cc1ccccc1F)NC(=O)[C@@H](NC(=O)CNC(=O)[C@H](CCC(=O)O)NC(=O)C(C)(C)NC(=O)[C@@H](N)Cc1ccc(O)cc1)[C@@H](C)O)[C@@H](C)O)[C@@H](C)CC)[C@@H](C)CC)C(=O)N[C@@H](CCC(=O)O)C(=O)NCC(=O)NCC(=O)N1CCC[C@H]1C(=O)N[C@@H](CO)C(=O)N[C@@H](CO)C(=O)NCC(=O)N[C@@H](C)C(=O)N1CCC[C@H]1C(=O)N1CCC[C@H]1C(=O)N1CCC[C@H]1C(=O)N[C@@H](CO)C(=O)N[C@@H](CCCCNC(=O)COCCOCCNC(=O)CC[C@H](NC(=O)CCCCCCCCCOc1ccc(C(=O)O)cc1)C(=O)O)C(N)=O [Example 362] | 86.7 | – | 0.0131 | > 10100 | > 9950 | – | 0.34 | – | – | – | – | – | – | – | – | 109 |
